Key:
Assay type in all cases: cell-based
[1] = tested on: Non-transfected colon adenocarcinoma LS174T cells; assay: Growth of non-transfected LS174T colon adenocarcinoma cells (cell counting); conditions: 100 nM lubiprostone, fresh every 24 hr; cells counted at 0, 24, 48, 72 and 96 hr; non-transfected cells (low 15-PGDH); FIG. 1A
Description: (§1) Approximately half of colon cancers have a low level of NAD^+-linked 15-hydroxyprostaglandin dehydrogenase (NAD^+-15-PGDH). It was tested whether lubiprostone affected the growth of LS174T colon […] cells, which are known to have a low level of 15-PGDH. LS174T cells (ATCC #CL-188) were grown in Eagle's Minimum Essential Medium (ATCC #30-2003) containing 10% Fetal Bovine Serum (ATCC #30-2020) at 37° C. Human PGDH (hPGDH) was expressed in LS174T cells using pCMV6-Entry Vector. Both the human cDNA clone (#RC204160) and the Precision shuttle vector (#PS100001) were from OriGene Technologies, Rockville, Md. LS174T cells were transfected with hPGDH cDNA using Lipofectamine and selected using G418 (200 μg/ml). LS174T cells±hPGDH (+hPGDH or + vector alone, mock) were grown in 35 mm petri dishes (0.5×10^4 cells/dish) in triplicate. Confluent non-transfected cells were plated in 6 well dishes (1×10^4 cells/well) in triplicate. Cultures were grown to 40% confluence and were then treated with either 0.1% EtOH-0.01% DMSO or 100 nM lubiprostone. Media were changed and fresh EtOH-DMSO or lubiprostone was added every 24 hr. Cell growth was monitored by directly counting the cells in a randomly chosen field using a cell cytometer at 0, 24, 48, 72 and 96 hr.

[2] = tested on: hPGDH-transfected colon adenocarcinoma LS174T cells; assay: Growth of hPGDH-transfected LS174T colon adenocarcinoma cells (cell counting); conditions: 100 nM lubiprostone, fresh every 24 hr, cells counted at 0-96 hr, FIG. 1B
Description: as §1

[3] = tested on: Mock-transfected colon adenocarcinoma LS174T cells; assay: Growth of mock-transfected LS174T colon adenocarcinoma cells (cell counting); conditions: 100 nM lubiprostone, fresh every 24 hr; cells counted at 0-96 hr; vector-alone (mock) LS174T cells; FIG. 1C
Description: as §1

CCCCC(F)(F)[C@@]1(O)CC[C@H]2[C@@H](CC(=O)[C@@H]2CCCCCCC(=O)O)O1 [lubiprostone, (−)-7-[(2R,4aR,5R,7aR)-2-(1,1-difluoropentyl)-2-hydroxy-6-oxooctahydrocyclopenta[b]pyran-5-yl]heptanoic acid]
LS174T cell growth [1]: slowed or stopped | lubiprostone inhibition of cell growth after transfection with 15-OH PGDH [2]: prevented lubiprostone inhibition of cell growth | effect of mock transfection on lubiprostone inhibition of cell growth [3]: Mock transfection had no effect

From patent US20150099802A1, “SELECTIVE TUMOR TREATMENT” (SUCAMPO AG, priority 2013, published 2015)
